Test system: Wnt activity
Test: Wnt activity reporter assay (SP5 promoter firefly luciferase in SW480 cells)
Type: cell-based
Details: Homo sapiens; SW480 cells bearing SP5 promoter luciferase reporter; 24 h after compound addition; read-out: Wnt inhibition
Text: The above synthesized compounds were screened using the assay procedure for Wnt activity described below.
Reporter cell lines can be generated by stably transducing cells of cancer cell lines (e.g., colon cancer) with a lentiviral construct that include a wnt-responsive promoter driving expression of the firefly luciferase gene.
Lentiviral constructs can be made in which the SP5 promoter, a promoter having eight TCF/LEF binding sites derived from the SP5 promoter, is linked upstream of the firefly luciferase gene. The lentiviral constructs can also include a hygromycin resistance gene as a selectable marker. The SP5 promoter construct can be used to transduce SW480 cells, a colon cancer cell line having a mutated APC gene that generates a truncated APC protein, leading to de-regulated accumulation of β-catenin.
Cultured SW480 cells bearing a reporter construct can be distributed at approximately 10,000 cells per well into 384 well multiwell plates. Compounds from a small molecule compound library can then be added to the wells in half-log dilutions using a three micromolar top concentration. A series of control wells for each cell type receive only buffer and compound solvent. Twenty-four hours after the addition of compound, reporter activity for luciferases can be assayed, for example, by addition of the BrightGlo luminescence reagent (Promega) and the Victor3 plate reader (Perkin Elmer). Readings can be normalized to DMSO only treated cells, and normalized activities can then be used in the IC50 calculations.

## CC(C)CC(=O)Nc1cncc(-c2ccc3[nH]nc(-c4nc5c(-c6cccc(F)c6)cncc5[nH]4)c3c2)c1 [Compound 10, N-(5-(3-(7-(3-fluorophenyl)-3H-imidazo[4,5-c]pyridin-2-yl)-1H-indazol-5-yl)pyridin-3-yl)-3-methylbutanamide]
  IC50: 3.4 to 9 nM

## Fc1cccc(-c2cncc3[nH]c(-c4n[nH]c5ccc(-c6cccnc6)cc45)nc23)c1 [Compound 15, 7-(3-fluorophenyl)-2-(5-(pyridin-3-yl)-1H-indazol-3-yl)-3H-imidazo[4,5-c]pyridine]
  IC50: 10 to 25 nM

## c1cc(-c2cncc3[nH]c(-c4n[nH]c5ccc(-c6cncc(CNCC7CCCC7)c6)cc45)nc23)ccn1 [Compound 173, 1-Cyclopentyl-N-((5-(3-(7-(pyridin-4-yl)-3H-imidazo[4,5-c]pyridin-2-yl)-1H-indazol-5-yl)pyridin-3-yl)methyl)methanamine]
  IC50: 845 nM

## FC1(F)CCN(Cc2cncc(-c3ccc4[nH]nc(-c5nc6c(-c7cccnc7)cncc6[nH]5)c4c3)c2)C1 [Compound 339, 2-(5-(5-((3,3-Difluoropyrrolidin-1-yl)methyl)pyridin-3-yl)-1H-indazol-3-yl)-7-(pyridin-3-yl)-3H-imidazo[4,5-c]pyridine]
  IC50: 39 nM

## CN1CCN(c2cncc3[nH]c(-c4n[nH]c5ccc(-c6cncc(N7CCOCC7)c6)cc45)nc23)CC1 [Compound 5, 4-(5-(3-(7-(4-methylpiperazin-1-yl)-3H-imidazo[4,5-c]pyridin-2-yl)-1H-indazol-5-yl)pyridin-3-yl)morpholine]
  IC50: 67 to 98 nM

## CC(C)CC(=O)Nc1cncc(-c2ccc3[nH]nc(-c4nc5c(N6CCN(C)CC6)cncc5[nH]4)c3c2)c1 [Compound 1, 3-methyl-N-(5-(3-(7-(4-methylpiperazin-1-yl)-3H-imidazo[4,5-c]pyridin-2-yl)-1H-indazol-5-yl)pyridin-3-yl)butanamide]
  IC50: 140 to 150 nM

## CN1CCN(c2cncc(-c3ccc4[nH]nc(-c5nc6ccncc6[nH]5)c4c3)c2)CC1 [Compound 7, 2-(5-(5-(4-methylpiperazin-1-yl)pyridin-3-yl)-1H-indazol-3-yl)-3H-imidazo[4,5-c]pyridine]
  IC50: 214 to 463 nM

## O=C(Nc1cncc(-c2ccc3[nH]nc(-c4nc5ccncc5[nH]4)c3c2)c1)C1CC1 [Compound 283, N-(5-(3-(3H-Imidazo[4,5-c]pyridin-2-yl)-1H-indazol-5-yl)pyridin-3-yl)cyclopropanecarboxamide]
  IC50: 8 nM

## c1cc(-c2cncc3[nH]c(-c4n[nH]c5ccc(-c6cncc(CN7CCCCC7)c6)cc45)nc23)cs1 [Compound 303, 2-(5-(5-(Piperidin-1-ylmethyl)pyridin-3-yl)-1H-indazol-3-yl)-7-(thiophen-3-yl)-3H-imidazo[4,5-c]pyridine]
  IC50: 1000 nM

## CC(C)C(=O)Nc1cncc(-c2ccc3[nH]nc(-c4nc5c(-c6ccccc6F)cncc5[nH]4)c3c2)c1 [Compound 31, N-(5-(3-(7-(2-Fluorophenyl)-3H-imidazo[4,5-c]pyridin-2-yl)-1H-indazol-5-yl)pyridin-3-yl)isobutyramide]
  IC50: 5 nM

## CC(C)(C)C(=O)Nc1cncc(-c2ccc3[nH]nc(-c4nc5c(N6CCCCC6)cncc5[nH]4)c3c2)c1 [Compound 205, N-(5-(3-(7-(Piperidin-1-yl)-3H-imidazo[4,5-c]pyridin-2-yl)-1H-indazol-5-yl)pyridin-3-yl)pivalamide]
  IC50: 41 nM

## O=C(Nc1cncc(-c2ccc3[nH]nc(-c4nc5ccncc5[nH]4)c3c2)c1)c1ccccc1 [Compound 275, N-(5-(3-(3H-Imidazo[4,5-c]pyridin-2-yl)-1H-indazol-5-yl)pyridin-3-yl)benzamide]
  IC50: 141 nM

## O=C(Nc1cncc(-c2ccc3[nH]nc(-c4nc5c(-c6ccc(F)cc6)cncc5[nH]4)c3c2)c1)C1CCC1 [Compound 111, N-(5-(3-(7-(4-Fluorophenyl)-3H-imidazo[4,5-c]pyridin-2-yl)-1H-indazol-5-yl)pyridin-3-yl)cyclobutanecarboxamide]
  IC50: 6 nM

## O=C(Nc1cncc(-c2ccc3[nH]nc(-c4nc5c(-c6cccc(F)c6)cncc5[nH]4)c3c2)c1)C1CC1 [Compound 91, N-(5-(3-(7-(3-Fluorophenyl)-3H-imidazo[4,5-c]pyridin-2-yl)-1H-indazol-5-yl)pyridin-3-yl)cyclopropanecarboxamide]
  IC50: 2 nM

## Fc1cccc(-c2cncc3[nH]c(-c4n[nH]c5ccc(-c6cncc(CN7CCC(F)(F)C7)c6)cc45)nc23)c1 [Compound 336, 2-(5-(5-((3,3-Difluoropyrrolidin-1-yl)methyl)pyridin-3-yl)-1H-indazol-3-yl)-7-(3-fluorophenyl)-3H-imidazo[4,5-c]pyridine]
  IC50: 55 nM

— patent US10407425B2, “Indazole inhibitors of the Wnt signal pathway and therapeutic uses thereof” (Samumed, LLC, priority 2012, dated 2019)
